The record followed here is patent US5776903A, “Peptide derivatives usable as zinc endopeptidase 24-15 inhibitors” (Commissariat A l'Energie Atomique, priority 1995, dated 1998).

The structures appear in SMILES notation.

The assay deals with endopeptidase 24-15 (Rattus norvegicus, UniProt P24155). The assay is described as follows: Inhibition of neurotensin degradation by purified endopeptidase 24-15 (HPLC), inhibition constant Ki.
Chain of endopeptidase 24-15 (P24155 whole entry): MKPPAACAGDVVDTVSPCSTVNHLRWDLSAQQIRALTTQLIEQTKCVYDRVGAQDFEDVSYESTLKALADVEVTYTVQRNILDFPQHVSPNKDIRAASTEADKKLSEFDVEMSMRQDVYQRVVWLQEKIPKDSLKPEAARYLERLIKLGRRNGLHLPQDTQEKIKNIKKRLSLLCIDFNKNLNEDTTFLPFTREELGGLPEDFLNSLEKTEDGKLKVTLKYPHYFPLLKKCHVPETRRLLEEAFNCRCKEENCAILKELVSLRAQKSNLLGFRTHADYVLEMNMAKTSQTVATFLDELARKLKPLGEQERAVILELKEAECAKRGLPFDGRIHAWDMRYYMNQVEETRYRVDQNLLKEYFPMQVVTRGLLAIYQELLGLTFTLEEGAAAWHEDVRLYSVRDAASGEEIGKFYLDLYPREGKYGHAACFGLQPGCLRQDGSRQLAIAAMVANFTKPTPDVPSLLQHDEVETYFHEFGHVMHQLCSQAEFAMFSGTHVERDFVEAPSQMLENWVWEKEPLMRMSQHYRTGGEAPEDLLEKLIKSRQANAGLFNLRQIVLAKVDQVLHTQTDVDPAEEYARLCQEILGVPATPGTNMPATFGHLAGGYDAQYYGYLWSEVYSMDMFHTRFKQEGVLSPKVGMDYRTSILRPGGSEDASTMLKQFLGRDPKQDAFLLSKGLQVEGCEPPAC
Method: Incubation takes place for 1 hour at 37° C. of 2 nmole (20 μmole/l) of neurotensin, which is a known endopeptidase 24-15 substrate, with 7 μg of purified endopeptidase 24-15 in a final volume of 100 μl of tris-HCl buffer, 50 nM, pH 7.5, in the absence of an inhibitor (control) or in the presence of the peptide tested at concentrations from 10^-11 to 10^-7 mole/l. After 1 hour incubation analysis takes place of the solutions by HPLC. On the basis of this analysis the inhibition constant Ki of the tested peptide is determined.
Usually Ki stands for the dissociation constant of the complex between target and ligand, obtained from inhibition or displacement. Consider `CC(CP(=O)(O)C(Cc1ccccc1)NC(=O)OCc1ccccc1)C(=O)N[C@@H](CCCCN)C(=O)N[C@@H](CCC(N)=O)C(=O)O` (mixture of isomers) [compound 28, Z--Phe .PSI. (PO2 CH2)Ala--Lys--Gln], for which the Ki is 2.18 nM.

For `CC(CP(=O)(O)C(Cc1ccccc1)NC(=O)OCc1ccccc1)C(=O)N[C@@H](CCCCN)C(=O)N[C@@H](Cc1ccc(O)cc1)C(=O)O` (mixture of isomers) [compound 29, Z--Phe .PSI. (PO2 CH2)Ala--Lys--Tyr], the Ki came to 2.3 nM.

As to `CC(CP(=O)(O)C(Cc1ccccc1)NC(=O)OCc1ccccc1)C(=O)N[C@@H](CCCCN)C(=O)N[C@H](C(=O)O)C(C)C` (mixture of isomers) [compound 30, Z--Phe .PSI. (PO2 CH2)Ala--Lys--Val], the affinity corresponds to a Ki of 2.6 nM.

The compound `CC(CP(=O)(O)C(Cc1ccccc1)NC(=O)OCc1ccccc1)C(=O)N[C@@H](CCCCN)C(=O)N[C@@H](CCCNC(=N)N)C(=O)O` (mixture of isomers) [compound 31, Z--Phe .PSI. (PO2 CH2)Ala--Lys--Arg] displayed a Ki of 3.17 nM. The Ki values of the last two compounds are within 1.5-fold of each other.

Take `CC(CP(=O)(O)C(Cc1ccccc1)NC(=O)OCc1ccccc1)C(=O)N[C@@H](CCCCN)C(=O)N[C@@H](CC(N)=O)C(=O)O` (mixture of isomers) [compound 32, Z--Phe .PSI. (PO2 CH2)Ala--Lys--Asn]: the Ki was 4.9 nM.

`CC(CP(=O)(O)C(Cc1ccccc1)NC(=O)OCc1ccccc1)C(=O)N[C@@H](CCCCN)C(=O)NCC(=O)O` (mixture of isomers) [compound 33, Z--Phe .PSI. (PO2 CH2)Ala--Lys--Gly] returned a Ki of 5.1 nM.

Compound `CC(CP(=O)(O)C(Cc1ccccc1)NC(=O)OCc1ccccc1)C(=O)N[C@@H](CCCCN)C(=O)N[C@@H](Cc1c[nH]c2ccccc12)C(=O)O` (mixture of isomers) [compound 34, Z--Phe .PSI. (PO2 CH2)Ala--Lys--Trp] registered a Ki of 5.78 nM.

The compound `CC(CP(=O)(O)C(Cc1ccccc1)NC(=O)OCc1ccccc1)C(=O)N[C@@H](CCCCN)C(=O)N[C@@H](Cc1c[nH]cn1)C(=O)O` (mixture of isomers) [compound 35, Z--Phe .PSI. (PO2 CH2)Ala--Lys--His] returned a Ki of 7.13 nM.

On to `CC(CP(=O)(O)C(Cc1ccccc1)NC(=O)OCc1ccccc1)C(=O)N[C@@H](CCCCN)C(=O)N[C@H](C(=O)O)[C@@H](C)O` (mixture of isomers) [compound 36, Z--Phe .PSI. (PO2 CH2)Ala--Lys--Thr], for which the Ki is 10.1 nM.

In the case of `CC(CP(=O)(O)C(Cc1ccccc1)NC(=O)OCc1ccccc1)C(=O)N[C@@H](CCCCN)C(=O)N[C@@H](CO)C(=O)O` (mixture of isomers) [compound 37, Z--Phe .PSI. (PO2 CH2)Ala--Lys--Ser], affinity was put at a Ki of 11.9 nM.

In turn, `CC(CP(=O)(O)C(Cc1ccccc1)NC(=O)OCc1ccccc1)C(=O)N[C@@H](CCCCN)C(=O)N[C@@H](CCCCN)C(=O)O` (mixture of isomers) [compound 38, Z--Phe .PSI. (PO2 CH2)ASla--Lys--Lys] gave a Ki of 26.9 nM.

In the case of `CC(CP(=O)(O)C(Cc1ccccc1)NC(=O)OCc1ccccc1)C(=O)N[C@@H](CCCCN)C(=O)N[C@@H](CCC(=O)O)C(=O)O` (mixture of isomers) [compound 39, Z--Phe .PSI. (PO2 CH2)Ala--Lys--Glu], the Ki amounted to 53.5 nM.

For the compound `CC(CP(=O)(O)C(Cc1ccccc1)NC(=O)OCc1ccccc1)C(=O)N[C@@H](CCCCN)C(=O)N[C@@H](CC(=O)O)C(=O)O` (mixture of isomers) [compound 40, Z--Phe .PSI. (PO2 CH2)Ala--Lys--Asp], the Ki is 109 nM.

`CC(CP(=O)(O)C(Cc1ccccc1)NC(=O)OCc1ccccc1)C(=O)N[C@@H](CCCCN)C(=O)N1CCC[C@H]1C(=O)O` (mixture of isomers) [compound 41, Z--Phe .PSI. (PO2 CH2)Ala--Lys--Pro]: the Ki amounted to 1030 nM.
